Literature values, collected in patent publication US11081240B2, “Methods for treatment of hypertension with an angiotensin II receptor blocker pharmaceutical composition” (AstraZeneca UK Limited, priority 2018, dated 2021).

How the values were obtained:
[1] = treatment of hypertension; at least 5 double-blind, placebo-controlled, randomized studies
[2] = co-administration of a potassium supplement with a single oral dose
[3] = administered with a lithium medication

## CCOc1nc2cccc(C(=O)OCc3oc(=O)oc3C)c2n1Cc1ccc(-c2ccccc2-c2noc(=O)[nH]2)cc1 [azilsartan medoxomil]
[1]
  efficacy to lower blood pressure: has been demonstrated
[2]
  effect of a potassium supplement on the pharmacokinetics of the drug: no significant effect
[3]
  serum lithium concentrations / lithium toxicity on co-administration: increases in the serum lithium concentrations and/or lithium toxicity have been observed
